Structures can show the parent of a compound that is named as a salt.
Columns and labels:
[1] = Stability test (solid change) by DSC measurement; assay type: physicochemical; settings: crystals, 10° C./min, room temperature to 300° C.
Experimental: The DSC measurement was conducted according to the following test conditions. • Equipment: TA Instruments Q1000 • Sample: about 5 mg • Rate of temperature increase: 10° C./min • Measurement temperature: Room temperature to 300° C.

[2] = Solubility measurement, Japanese Pharmacopoeia Dissolution test; assay type: physicochemical; settings: crystals; for solubility, 1st fluid for dissolution test: Japanese Pharmacopoeia 1st fluid for dissolution test; for solubility, 2nd fluid for dissolution test: Japanese Pharmacopoeia 2nd fluid for dissolution test
Experimental: The solubility measurement was conducted on the hydrochloride salt, the mesylate salt, the potassium salt, and the sodium salt of Compound 1 and the free form of Compound 1. Specifically, the solubility of the samples: the crystals of the hydrochloride salt of Compound 1 produced in Example 1; the crystals of the mesylate salt of Compound 1 produced in Comparative Example 1; the crystals of the potassium salt of Compound 1 produced in Comparative Example 2; the crystals of the sodium salt of Compound 1 produced in Comparative Example 3; and the crystal of the free form of Compound 1, in the 1st and 2nd fluids for dissolution test according to Japanese Pharmacopoeia was measured according to Japanese Pharmacopoeia, Dissolution test.

[3] = Absorption test, oral administration to mice, plasma concentration by LC/MS; assay type: in vivo; settings: BALB/cA mice, 50 mg/kg in terms of Compound 1, suspended in 0.5% HPMC
Experimental: The hydrochloride salt of Compound 1 was suspended in 0.5% HPMC, and orally administered to BALB/cA mice at 50 mg/kg in terms of the dose of Compound 1. At 0.5, 1, 2, 4, and 6 hours after the oral administration, the blood was collected from the eyeground, and the plasma was obtained. The compound concentration in the obtained plasma was measured by LC/MS (Agilent Technologies Inc. Agilent 1200, AB Sciex Pte. Ltd. AB Sciex API400) and the oral absorption was evaluated.

[4] = Stability test (purity) by liquid chromatography after storage; assay type: physicochemical; settings: for purity (%) in samples, 40° C. (open system): crystals left at 40° C. (open system) for 1 month; for purity (%) in samples, 60° C. (open system): crystals left at 60° C. (open system) for 1 month; for purity (%) in samples, under light irradiation: crystals left under light irradiation (1200000 Lux·hr) for 1 month; for purity (%) in samples, before starting test: crystals
Experimental: The measurement by liquid chromatography was conducted according to the following test conditions. • Equipment: Agilent Technologies, Inc., 1200 Series Binary LC System • Mobile phase A: 10 mM Na2HPO4 aqueous solution (pH 6.5) • Mobile phase B: Acetonitrile • Gradient: described in Table 1 • Column: Ascentis Express C18, 150 mm×4.6 mm i.d., 2.7 μm • Measurement wavelength: 210 nm
The crystals of the hydrochloride salt, the mesylate salt, the potassium salt, the sodium salt, and the free form of Compound 1 obtained in Example 1 and Comparative Examples 1 to 4 were each left under conditions at 40° C. (open system), at 60° C. (open system), and under light irradiation (1200000 Lux·hr) for 1 month. Subsequent measurement of purity by liquid chromatography indicated the purity change between before and after the test was 0.2% or less in any of the conditions.

[5] = Dynamic vapor sorption system (DVS) analysis (hygroscopicity); assay type: physicochemical; settings: increase of humidity from 5% to 75% RH, 25° C.
Experimental: The dynamic vapor sorption system (DVS) analysis was conducted under the following conditions. • Equipment: TA Instruments VTI SGA-100 • Sample: about 10 mg • Measurement temperature: 25° C. • RH steps: 5-95-1% RH by 5% RH
The hygroscopicity of the hydrochloride salt of Compound 1 obtained in Example 1 and the potassium salt obtained in Comparative Example 2 was examined by dynamic vapor sorption system (DVS) analysis. The adsorption and desorption data was collected at 5% relative humidity (RH) intervals in the range of 5% to 95% RH. Before the measurement, the temperature was increased at 1° C./min to 25° C. under nitrogen purging and the salts were dried for up to 6 hours until the weight change in 5 minutes became less than 0.0100%. At the time of the measurement, up to 2 hours of equilibration was conducted until the weight change in 5 minutes became less than 0.0100%.

DSC chart: endothermic and exothermic processes at relatively low temperatures (solid change) [1]	solubility, 1st fluid for dissolution test [2]	solubility, 2nd fluid for dissolution test [2]	Plasma concentration AUC0-6 h [3]	purity (%) in samples, 40° C. (open system) [4]	purity (%) in samples, 60° C. (open system) [4]	purity (%) in samples, under light irradiation [4]	purity (%) in samples, before starting test [4]	weight change in DVS analysis ([5]; listed as hydrochloride salt of Compound 1)	weight change in DVS analysis ([5]; listed as hydrochloride salt of the present invention)	weight change in DVS analysis [5]	weight change in DVS analysis ([5]; listed as sodium salt of Compound 1)	SMILES
such charts were not obtained	24 µg/mL	6 µg/mL	0.43 µM·h									Cc1cc(Nc2nc(CC3(C(=O)O)CCN(C(=O)c4cccc(Cl)c4Cl)CC3)ccc2F)n[nH]1 [Free form, 1-(2,3-dichlorobenzoyl)-4-((5-fluoro-6-(5-methyl-1H-pyrazol-3-ylamino)pyridin-2-yl)methyl)piperidine-4-carboxylic acid]
such charts were not obtained	>1000 µg/mL	>1000 µg/mL	18.2 µM·h	99.2%	99.3%	99.4%	99.4%	less than 0.5%	less than 0.5%			Cc1cc(Nc2nc(CC3(C(=O)O)CCN(C(=O)c4cccc(Cl)c4Cl)CC3)ccc2F)n[nH]1 [Hydrochloride salt, 1-(2,3-dichlorobenzoyl)-4-((5-fluoro-6-(5-methyl-1H-pyrazol-3-ylamino)pyridin-2-yl)methyl)piperidine-4-carboxylic acid]
such charts were not obtained	490 µg/mL	420 µg/mL										Cc1cc(Nc2nc(CC3(C(=O)O)CCN(C(=O)c4cccc(Cl)c4Cl)CC3)ccc2F)n[nH]1 [Mesylate salt, 1-(2,3-dichlorobenzoyl)-4-((5-fluoro-6-(5-methyl-1H-pyrazol-3-ylamino)pyridin-2-yl)methyl)piperidine-4-carboxylic acid]

SMILES	DSC chart: endothermic and exothermic processes at relatively low temperatures (solid change) [1]	solubility, 1st fluid for dissolution test [2]	solubility, 2nd fluid for dissolution test [2]	Plasma concentration AUC0-6 h [3]	purity (%) in samples, 40° C. (open system) [4]	purity (%) in samples, 60° C. (open system) [4]	purity (%) in samples, under light irradiation [4]	purity (%) in samples, before starting test [4]	weight change in DVS analysis ([5]; listed as hydrochloride salt of Compound 1)	weight change in DVS analysis ([5]; listed as hydrochloride salt of the present invention)	weight change in DVS analysis [5]	weight change in DVS analysis ([5]; listed as sodium salt of Compound 1)
Cc1cc(Nc2nc(CC3(C(=O)O)CCN(C(=O)c4cccc(Cl)c4Cl)CC3)ccc2F)n[nH]1 [Potassium salt, 1-(2,3-dichlorobenzoyl)-4-((5-fluoro-6-(5-methyl-1H-pyrazol-3-ylamino)pyridin-2-yl)methyl)piperidine-4-carboxylic acid]	charts suggesting endothermic and exothermic processes at relatively low temperatures were obtained	>1000 µg/mL	730 µg/mL		99.7%	99.8%	99.8%	99.8%			exceeded 14%	
Cc1cc(Nc2nc(CC3(C(=O)O)CCN(C(=O)c4cccc(Cl)c4Cl)CC3)ccc2F)n[nH]1 [Sodium salt, 1-(2,3-dichlorobenzoyl)-4-((5-fluoro-6-(5-methyl-1H-pyrazol-3-ylamino)pyridin-2-yl)methyl)piperidine-4-carboxylic acid]	charts suggesting endothermic and exothermic processes at relatively low temperatures were obtained	>1000 µg/mL	>1000 µg/mL									≥ 40%

Source: US11028069B2, “Salt of substituted piperidine compound” (TAIHO PHARMACEUTICAL CO., LTD., priority 2016, dated 2021)
